# Assay results published in patent publication US20070259837A1, “Use of Non-Glucocorticoid Steroids for the Treatment of Muscular Dystrophy” (SANTHERA PHARMACEUTICALS (SCHWEIZ) AG, priority 2004, published 2007).
# Like-named read-outs stand apart in the source and are kept apart here.
# Tested on: utrophin protein in human muscle cells derived from DMD patients
# Test: Cell-based ELISA for normalized utrophin protein level in primary human myotube cultures
# Conditions: for % UTR vs. PDN (normalized utrophin protein as % of PDN-treated sister cultures): same experiment; for activity at 0.5 µM: Myotube, read-out: % UTR vs. DMSO (normalized utrophin protein over DMSO-solvent treated control)
# Procedure: The method used to detect and determine utrophin-inducing activity of non-glucocorticoid steroids has been described previously (Courdier-Fruh, I., Barman, L., Briguet, A. & Meier, T.; 2002, Neuromuscul. Disord.; 12 Suppl:S95). Briefly, primary human muscle cell cultures were prepared according to standard protocols (Askanas V, Kwan H, Alvarez R B, Engel W K, Kobayashi T, Martinuzzi A, Hawkins E F., 1987, J Neurocytol., 16:523-537). Test compounds and the glucocorticoid 6α-methylprednisolone-21 sodium succinate (Pharmacia & Upjohn; Solu-Medrol®, PDN) as reference compound were applied at 500 nM final concentration as soon as myoblasts started to differentiate into myotubes. Incubation with the test compound was ended as soon as well differentiated myotubes have formed, typically resulting in an incubation time with a test compound for 3-7 days.
# Normalized concentrations of utrophin protein in human muscle cells cultured in microtiter plates were determined by a cell-based enzyme-linked immunosorbent assay (ELISA) procedure that allows a successive readout for the cell density and utrophin protein level. For calibration, the cell density and differentiation was determined by absorbance measurements of the total dehydrogenase enzyme activity in each well using the colorimetric CellTiter 96®AQ One Solution Reagent Proliferation Assay (Promega) according to the manufacturer's recommendation. Subsequently, cells were fixed, washed, permeabilized with 0.5% (v/v) Triton X-100 and unspecific antibody binding-sites were blocked by standard procedures. Utrophin protein levels were determined immunologically with utrophin-specific primary antibodies (mouse monoclonal antibody to the amino terminal portion of utrophin, NCL-DRP2, Novocastra Laboratories) and with appropriate peroxidase-coupled secondary antibodies using QuantaBlu™ Fluorogenic Peroxidase Substrate Kit (Pierce) for detection. Fluorescence measurements were carried out with a multilabel counter (Wallac) at λex=325 nm and at λem=420 nm. The primary readout of this signal is presented in arbitrary units. For calibration, the arbitrary units representing the relative utrophin protein content of each well were divided by the corresponding cell-titer absorbance value to correct for cell density. For comparison between experiments, the cell-titer corrected readout for utrophin protein content in each well was expressed in percent of solvent treated control cultures (set to 100%). PDN was included in all experiments as reference glucocorticoid, N=3-5 for each compound tested.
# Non-glucocorticoid test compounds, applied in a concentration of 500 nM, were regarded as “positive” in case the increase in the level of utrophin protein was at least 20% (mean value) over control cultures treated with the appropriate dilution of DMSO solvent as control and containing no test compound.
# A range of different pharmaceutical compounds were tested for their ability to increase levels of utrophin protein in primary human myotube cultures. The cell-based ELISA protocol used to detect the level of utrophin protein is provided above and described in Courdier-Fruh, I., Barman, L., Briguet, A. & Meier, T, 2002, Neuromuscul. Disord.: 12, Suppl:S95. Briefly, fixed and permeabilized human muscle cells derived from DMD patients and cultured in 96-well cell culture plates were incubated with antibodies specific for utrophin at a dilution of 1:1'000 in blocking solution (phosphate buffered saline (PBS) supplemented with 2% fetal calf serum and 1% bovine serum albumin) for 10-15 hours at 4° C. Following several washing steps with 0.1% Triton X-100 in PBS, peroxidase-coupled secondary antibodies diluted 1:3'000 in blocking solution were applied in each well for 1-2 hours at room temperature. Signal detection, data acquisition and normalization was performed as described above and in Courdier-Fruh, I., Barman, L., Briguet, A. & Meier, T, 2002, Neuromuscul. Disord.: 12, Suppl:S95. […]
# [1] = 500 nM compound, human muscle cultures, mean value, N=3-6
SMILES,% UTR vs. PDN (normalized utrophin protein as % of PDN-treated sister cultures) [1],activity at 0.5 µM (Homo sapiens),activity at 0.5 µM [1]
C[C@]12CCC3C(CC[C@H]4C[C@@H](OC(=O)c5ccccc5)CC[C@]34C)C1CC(=O)C2 (some centres unmarked) [Example 46],112%,131%,
CC(C)CCCC(C)[C@H]1CCC2C3C[C@@H](O)[C@@]4(O)C[C@@H](O)CC[C@]4(C)C3CC[C@@]21C (some centres unmarked) [Example 35],94%,122%,
CC(=O)OC1CCC2C3CC[C@H]4C[C@H](O)CC[C@]4(C)C3CC[C@]12C (some centres unmarked) [Example 44],99%,129%,
C[C@]12CCC3C(CC[C@H]4C[C@@H](OC(=O)c5ccccc5)CC[C@]34C)C1CC[C@@H]2OC(=O)c1ccccc1 (some centres unmarked) [Example 38],108%,126%,
CC(CCC(=O)O)C1CCC2C3CC[C@@H]4C[C@H](OC(=O)c5ccccc5)CC[C@]4(C)C3C(=O)C[C@]12C (some centres unmarked) [Example 6],106%,123%,
CC(=O)O[C@H]1CC[C@]2(C)C3C(=O)[C@@H](OC(C)=O)[C@]4(C)C5[C@H](C[C@H]4[C@@H]3CC[C@H]2C1)O[C@]1(CCC(C)CO1)[C@H]5C (some centres unmarked) [Example 24],103%,134%,
CC(=O)OCC(=O)[C@H]1CCC2C3CCC4=CC(=O)CC[C@]4(C)C3CC[C@@]21C (some centres unmarked) [Example 67],96%,,120%
CC1CC[C@@]2(OC1)O[C@H]1C[C@H]3[C@@H]4CC[C@H]5CC(=O)CC[C@]5(C)C4CC[C@]3(C)C1[C@@H]2C (some centres unmarked) [Example 28],93%,120%,
C[C@H](C(=O)O)C1CCC2C3CC=C4C[C@H](O)CC[C@]4(C)C3CC[C@@]21C (some centres unmarked) [Example 16],104%,136%,
CCC(=O)Oc1ccc2c(c1)CCC1C2CC[C@@]2(C)C1C[C@@H](OC(=O)CC)[C@@H]2OC(=O)CC (some centres unmarked) [Example 75],102%,131%,
CC(=O)O[C@H]1CC[C@]2(C)C3CC[C@]4(C)C(C(C)=O)=CCC4C3CC[C@H]2C1 (some centres unmarked) [Example 60],101%,127%,
CC(=O)O[C@H]1CC[C@]2(C)C3C[C@@H](O)[C@]4(C)C5[C@H](C[C@H]4[C@@H]3CC[C@H]2C1)O[C@]1(CCC(C)CO1)[C@H]5C (some centres unmarked) [Example 21],105%,130%,
CC(=O)O[C@H]1CCC2C3CCc4cc(O)ccc4C3CC[C@@]21C (some centres unmarked) [Example 77],102%,128%,
CC(=O)C1CCC2C3CC[C@H]4C[C@H](O)CC[C@]4(C)C3C[C@H](O)[C@]12C (some centres unmarked) [Example 65],97%,121%,
CC(=O)O[C@H]1CC[C@]2(C)C3C(=O)C[C@@]4(C)[C@H](C(C)CCC(=O)O)CC[C@]4(C)C3C(=O)CC2C1(C)C (some centres unmarked) [Example 14],92%,115%,
CC(=O)O[C@@H]1CC[C@]2(C)C3C[C@H](OC(C)=O)[C@]4(C)C(C(C)CCC(=O)O)CCC4C3CC[C@@H]2C1 (some centres unmarked) [Example 3],122%,144%,

SMILES,% UTR vs. PDN (normalized utrophin protein as % of PDN-treated sister cultures) [1],activity at 0.5 µM (Homo sapiens),activity at 0.5 µM [1]
"C[C@]12CCC(=O)C=C1CC[C@@H]1[C@@H]2CC[C@@]2(C)[C@H]1CC[C@]2(O)C(=O)CO [Example 53, Cortexolone]",111%,,146%
C[C@]12CCC3C(CC[C@]4(O)C[C@@H](O)CC[C@]34C=O)[C@@]1(O)CCC2C1=CC(=O)OC1 (some centres unmarked) [Example 82],101%,122%,
CC1CC[C@@]2(OC1)O[C@H]1C[C@H]3[C@@H]4CC[C@H]5C[C@@H](O)CC[C@]5(C)C4CC[C@]3(C)C1[C@@H]2C (some centres unmarked) [Example 29],91%,120%,
CC(=O)O[C@@H]1CC[C@]2(C)C3C(=O)C[C@]4(C)C(C(C)CCC(=O)O)CCC4C3CC[C@@H]2C1 (some centres unmarked) [Example 4],112%,130%,
C[C@]12CC(=O)C3C(CC[C@@H]4C[C@H](O)CC[C@]34C)C1CC[C@]2(O)C1(CO)OCCO1 (some centres unmarked) [Example 70],94%,122%,
CC(=O)O[C@H]1CC[C@]2(C)C3C=C[C@]4(C)C5[C@H](C[C@H]4[C@@H]3CC[C@H]2C1)O[C@]1(CCC(C)CO1)[C@H]5C (some centres unmarked) [Example 25],102%,129%,
CC(CCC(=O)O)C1CCC2C3C(CC[C@]12C)[C@@]1(C)CC[C@@H](O)C[C@H]1C[C@@H]3O (some centres unmarked) [Example 10],96%,121%,
"C[C@]12CCC3c4ccc(O)cc4CCC3C1CC[C@@H]2O (some centres unmarked) [Example 71, Estradiol]",105%,,136%
C[C@]12C[C@H](O)C3C(CC[C@@H]4C[C@H](O)CC[C@]34C)C1CCC2C(=O)CO (some centres unmarked) [Example 69],95%,123%,
C[C@]12C(=CCC1C1=CC(=O)OC1)C1CC[C@@H]3C[C@@H](O)CC[C@]3(C)C1C[C@H]2O (some centres unmarked) [Example 81],103%,129%,
CC(=O)O[C@@H]1CC[C@]2(C)C3CC[C@]4(C)C(C(C)CCC(=O)O)CCC4C3CC[C@@H]2C1 (some centres unmarked) [Example 7],104%,121%,
C[C@]12CCC(=O)C[C@H]1CCC1C2C(=O)C[C@]2(C)C(C3=CC(=O)OC3)CC[C@]12O (some centres unmarked) [Example 84],98%,123%,
C[C@]12CCC3c4ccc(OCc5ccccc5)cc4CCC3C1C[C@@H](O)[C@@H]2O (some centres unmarked) [Example 72],105%,132%,
CC(=O)[C@H]1CCC2C3CCC4=CC(=O)CC[C@]4(C)C3[C@H](OC(=O)c3ccccc3)C[C@@]21C (some centres unmarked) [Example 57],104%,120%,
CC(=O)[C@H]1CCC2C3CCC4=CC(=O)CC[C@]4(C)C3[C@H](O)C[C@@]21C (some centres unmarked) [Example 58],102%,133%,
